Reference: PubChem BioAssay (NCI)
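Cells were grown in 96-well plates and exposed to each compound for 48 hours at five concentrations; endpoints were interpolated linearly between bracketing concentrations, or set to the highest concentration if not reached. TGI: concentration producing complete growth inhibition.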

Assays:
Test in all cases: NCI-60 cell line screen, 48 h
[1] = test system: SR leukemia
[2] = test system: MDA-MB-435
[3] = test system: HS 578T breast
[4] = test system: TK-10 renal
[5] = test system: T-47D breast
[6] = test system: HL-60(TB) leukemia
[7] = test system: LOX IMVI melanoma
[8] = test system: SF-295 CNS
[9] = test system: UO-31 renal
[10] = test system: SK-MEL-2 melanoma
[11] = test system: SW-620 colon
[12] = test system: SK-MEL-5 melanoma
[13] = test system: NCI-H460 lung
[14] = test system: RPMI-8226 leukemia
[15] = test system: HOP-62 NSCLC
[16] = test system: HT29 colon
[17] = test system: DU-145 prostate
[18] = test system: 786-0 renal
[19] = test system: BT-549 breast
[20] = test system: SF-268 CNS

SMILES | TGI [1] [µM] | TGI [2] [µM] | TGI [3] [µM] | TGI [4] [µM] | TGI [5] [µM] | TGI [6] [µM] | TGI [7] [µM] | TGI [8] [µM] | TGI [9] [µM] | TGI [10] [µM] | TGI [11] [µM] | TGI [12] [µM] | TGI [13] [µM] | TGI [14] [µM] | TGI [15] [µM] | TGI [16] [µM] | TGI [17] [µM] | TGI [18] [µM] | TGI [19] [µM] | TGI [20] [µM]
C=CCNC1=C2C[C@@H](C)C[C@H](OC)[C@H](O)[C@@H](C)/C=C(\C)[C@H](OC(N)=O)[C@@H](OC)/C=C\C=C(/C)C(=O)NC(=CC1=O)C2=O | 10.3 | 17 | 47.5 | 48.3 | 29.5 | 1.06 | 2 | 7.46 | 21.4 | 19.1 | 33.9 | 16.5 | 15.9 | 26.2 | 23.1 | 12.1 | 7.33 | 58.3 | 31.1 | 49.6
O=c1[nH][nH]c(=O)n1/N=C/c1ccccc1 | > 100 | > 100 | > 100 | > 100 | > 100 | > 100 | > 100 | > 100 | > 100 | > 100 | > 100 | > 100 | > 100 | > 100 | > 100 | > 100 | > 100 | > 100 | > 100 | > 100
Cc1ccc(S(=O)(=O)N/N=C2\CCC3(O)CC2(C)CCC2C3CC2(C)C)cc1 (stereo not given) | > 100 | > 100 | 95.6 | 75.8 | > 100 | > 100 | > 100 | > 100 | 80.3 | 87.1 | > 100 | > 100 | 46.7 | > 100 | > 100 | > 100 | > 100 | > 100 | > 100 | > 100
CC(C)OC(=O)[C@H]1ON2O[C@H](O[C@@H]3CCCC[C@H]3c3ccccc3)C([Si](C)(C)c3ccccc3)[C@H]3OC(=O)[C@@H]1C32 (stereo not given in full) | 54.2 | > 100 | > 100 | > 100 | > 100 | > 100 | > 100 | > 100 | > 100 | > 100 | > 100 | > 100 | > 100 | > 100 | > 100 | > 100 | > 100 | > 100 | > 100 | > 100
COc1c(C(C)(C)C)cc(CC2C(=O)C=CC2=O)cc1C(C)(C)C | 19.1 | 37.4 | 70.4 | 12.1 | 12.7 | 11.3 | 40.2 | 44 | 27.5 | 36.7 | 28.2 | 33.9 | 41.2 | 11.6 | 36.9 | 36.1 | 15.5 | > 22.3 | 41.1 | 40
O=[N+]([O-])c1ccc2sc(/C=N/c3ccccn3)cc2c1 | 89.4 | > 100 | > 100 | > 100 | 74 | > 100 | > 100 | > 100 | > 100 | > 100 | > 100 | > 100 | > 100 | 88.9 | > 100 | > 100 | > 100 | > 100 | > 100 | 94
O=[N+]([O-])c1cc(-[n+]2cc([O-])on2)ccc1Cl | > 100 | > 100 | 31.3 | 67.2 | 38.8 | > 100 | 33.7 | 51.5 | 31 | 46.3 | 26.2 | 21.9 | > 100 | 79.8 | 30.1 | 28.5 | 30.5 | 60.3 | 49 | 78.3
c1ccc2c(c1)c1c3c(c4c(n32)=NCCN4)CCC1 | 47.4 | > 100 | > 100 | > 100 | 92.1 | > 100 | 43.3 | > 100 | > 100 | 66.2 | > 100 | > 100 | > 100 | 63.2 | > 100 | 56.7 | > 100 | > 100 | > 100 | > 100
O=CC1C(Cl)=Nc2nc3ccccc3n2C1c1ccccc1 (stereo not given) | 14.4 | > 100 | 25.4 | 51.4 | 41.2 | 58.3 | 29 | > 100 | 48.4 | 27.3 | 40.2 | 45.5 | > 100 | 43.8 | 44.2 | 37.7 | 31.4 | 29.5 | 29 | 37.2
CCOC(=O)C1C(c2ccc(OC)cc2)c2c([nH][nH]c2=O)CC1(C)O (stereo not given) | > 100 | > 100 | > 100 | > 100 | > 100 | > 100 | > 100 | > 100 | > 100 | > 100 | > 100 | > 100 | > 100 | > 100 | > 100 | > 100 | > 100 | > 100 | > 100 | > 100
CN(C)CCCNC(=O)c1cc(NS(=O)(=O)c2ccc3c(c2)C(=O)c2ccccc2C3=O)cn1C | 85.2 | 59 | > 100 | 51.3 | > 100 | 62.3 | 39.6 | 94.9 | > 100 | > 100 | > 100 | 37.4 | 54.9 | 53.2 | > 100 | 81.4 | 76.3 | 77.3 | 53.9 | 72.5
CCOC(=O)CCC(NC(=O)c1ccc(Oc2nc3c(N)cc(C(F)(F)F)cc3nc2-c2ccccc2)cc1)C(=O)OCC (stereo not given) | > 100 | > 100 | > 72.8 | > 100 | > 100 | > 100 | > 100 | 96.8 | > 100 | > 30.7 | > 100 | > 100 | > 100 | > 100 | 28.5 | > 100 | > 64.8 | > 22 | > 95 | > 71.2
CCS(=O)c1c2cc(OC)ccc2nc2ccc(OC)cc12 (stereo not given) | > 25 | 26.4 | 38.9 | 10.3 | 5.85 | > 100 | > 100 | 63.4 | 13.1 | 35.3 | > 65.9 | 30.3 | > 68 | 16.5 | 51.1 | 10 | 6.49 | 6.42 | 31.9 | > 62
c1ccc(Cn2c(-c3ccc(-c4ccccc4)cc3)cc3ccccc32)cc1 | > 100 | > 100 | > 100 | > 100 | > 100 | > 100 | > 100 | > 100 | > 100 | > 100 | > 100 | > 100 | > 100 | > 100 | > 100 | > 100 | > 100 | > 100 | > 100 | > 100
COc1ccc2c(c1)C(OC)C1c3c(cc4c(c3-2)OCO4)CCN1C (stereo not given) | > 42.3 | 13.1 | 5.35 | > 63.8 | > 63.7 | > 20.6 | > 32 | 11.7 | 4.59 | 7.9 | 18.7 | 5.17 | 8.83 | 20.6 | 8.34 | 14.1 | > 52 | > 40.9 | 8.48 | 20.2
Nc1nc(Cl)c2ncn(Cc3cccc(CCl)c3)c2n1 | > 28.3 | 29 | 36.9 | 22.1 | 42.1 | > 36.1 | 13.4 | 21.3 | 33.7 | 58.5 | 11.9 | 15.9 | 27 | 9.81 | 9.48 | 19.2 | 18.6 | 22.6 | 17.4 | 18.9
CN(C)c1ccc(/C=N/c2nc3cc4sc(/N=C/c5ccc(N(C)C)cc5)nc4cc3s2)cc1 | > 100 | > 100 | 92.4 | > 100 | > 100 | > 100 | > 100 | > 100 | > 100 | > 100 | > 100 | > 100 | > 100 | > 100 | > 100 | > 100 | 99.1 | > 100 | > 100 | > 100
Cc1ccc(S(=O)(=O)N/N=C2\CCCCCCCCCCC2CN(C)C)cc1 (stereo not given) | > 100 | 28 | 35.6 | 27.6 | 30.2 | 97.5 | 31.5 | 30.9 | 21 | 22.8 | 31.8 | 24 | 25.3 | > 100 | 33.8 | 29.5 | 34.8 | 29.9 | 32.1 | 54.3
COc1ccc(CNc2nc(NCc3ccc(OC)cc3)nc(NC3CCCC3)n2)cc1 | > 100 | 4.95 | > 21.3 | > 26.1 | > 100 | > 28.3 | 76.9 | > 31.5 | > 91.1 | > 100 | > 100 | 14 | > 33.8 | > 30.4 | > 100 | 13.6 | > 40.7 | > 68.5 | > 31.8 | > 100
O=C1OCC(c2ccc(Cl)cc2)=C1Cl | 39.2 | > 100 | > 100 | 60.6 | > 100 | 48.5 | 60.3 | > 100 | 33.9 | 64.1 | 61.2 | 31.5 | 46.2 | 86.2 | 56 | > 100 | > 100 | 40.6 | 53.9 | 70
CC/C(Cl)=N\OC(=O)Nc1ccc(OC)c(C)c1 | 26.9 | > 100 | 59.2 | 41.7 | 39.1 | > 44.5 | 31.1 | > 100 | 35.5 | 49.9 | > 68.8 | 39.1 | > 100 | > 55.8 | > 82.5 | 41.2 | > 100 | 36.8 | 34.9 | > 77.1
COC(=O)c1c(O)ccc2c1c1c(n2Cc2ccccc2OC)C(=O)c2ccccc2C1=O | 3.18 | 27.7 | 53.2 | 65 | 9.58 | 18.3 | 26.3 | 63.6 | 36.9 | 32.5 | 29.8 | 25.8 | 16.6 | 10.5 | 27.8 | 21.3 | 30 | 24 | 32.1 | 29.7
O=S(=O)(O)c1ccc2c(N=Nc3ccc(S(=O)(=O)O)c4ccccc34)c(O)c(S(=O)(=O)O)cc2c1 | > 100 | > 100 | > 100 | > 100 | > 100 | > 100 | > 100 | > 100 | > 100 | > 100 | > 100 | > 100 | > 100 | > 100 | > 100 | > 100 | > 100 | > 100 | > 100 | > 100
